Structures can show the parent of a compound that is named as a salt.
Test system: Acinetobacter baumannii ATCC17961
Test: Antimicrobial susceptibility testing: 90% growth inhibitory concentration (IC90) determination, Iso-Sensitest broth
Type: cell-based
Details: Acinetobacter baumannii, ATCC17961, 16 h, 90% growth inhibitory concentration, Acinetobacter baumannii ATCC17961, Iso-Sensitest broth, OD 600 nm over 16 h; read-out: ATCC17961 IC90
Method: Antimicrobial Susceptibility Testing:
90% Growth Inhibitory Concentration (IC90) Determination
The in vitro antimicrobial activity of the compounds was determined according to the following procedure:
The assay used a 10-points Iso-Sensitest broth medium to measure quantitatively the in vitro activity of the compounds against Acinetobacter baumannii ATCC17978 and Acinetobacter baumannii ATCC17961.
Stock compounds in DMSO were serially twofold diluted (e.g. range from 50 to 0.097 μM final concentration) in 384 wells microtiter plates and inoculated with 49 μl the bacterial suspension in Iso-Sensitest medium to have a final cell concentration of 5×10^(5) CFU/ml in a final volume/well of 50 ul/well. Microtiter plates were incubated at 35±2° C.
Bacterial cell growth was determined with the measurement of optical density at λ=600 nm each 20 minutes over a time course of 16 h. Growth inhibition was calculated during the logarithmic growth of the bacterial cells with determination of the concentration inhibiting 50% (IC50) and 90% (IC90) of the growth.
Table 1 provides the 90% growth inhibitory concentrations (IC90) in micromoles per liter of the compounds of present invention obtained against the strain Acinetobacter baumannii ATCC17978 and Acinetobacter baumannii ATCC17961.

SMILES	IC90 [nM]
COc1ccc(-c2cnc3c(Nc4ccc(C(=O)N5CCN(C(=O)[C@H]6NC[C@H]7C[C@H]76)CC5)c(C)c4)nccn23)c(F)c1F (racemic) [Example 82, (4-((1R,2S,5S)-3-azabicyclo[3.1.0]hexane-2-carbonyl)piperazin-1-yl)(4-((3-(2,3-difluoro-4-methoxyphenyl)imidazo[1,2-a]pyrazin-8-yl)amino)-2-methylphenyl)methanone hydrochloride]	98
Cc1cc(Nc2nccn3c(-c4ccc(OC(F)F)cc4)cnc23)ccc1C(=O)N1CCN(C(=O)N[C@@H]2CNC[C@H]2O)CC1 (racemic) [Example 170, 4-[4-[[3-[4-(difluoromethoxy)phenyl]imidazo[1,2-a]pyrazin-8-yl]amino]-2-methyl-benzoyl]-N-[rac-(3R,4R)-4-hydroxypyrrolidin-3-yl]piperazine-1-carboxamide hydrochloride]	35
COc1ccc(-c2cnc3c(Nc4ccc(C(=O)NC5CCC(NC(=O)[C@H]6C[C@H](O)CN6)C5)c(C)c4)nccn23)c(F)c1F (mixture of isomers) [Example 458, rac-(2R,4S)-N-[3-[[4-[[3-(2,3-difluoro-4-methoxyphenyl)imidazo[1,2-a]pyrazin-8-yl]amino]-2-methylbenzoyl]amino]cyclo-pentyl]-4-hydroxypyrrolidine-2-carboxamide]	81
Cc1cc(Nc2nccn3c(-c4ccc(OCC#N)c(F)c4Cl)cnc23)ccc1C(=O)N1CCN(C(=O)[C@@H]2CCNC[C@@H]2O)CC1 (relative stereo) [Example 223, 2-[3-chloro-2-fluoro-4-[8-[4-[4-[(3R,4R)-3-hydroxypiperidine-4-carbonyl]piperazine-1-carbonyl]-3-methyl-anilino]imidazo[1,2-a]pyrazin-3-yl]phenoxy] acetonitrile formate]	47
COc1ccc(-c2cnc3c(Nc4ccc(C(=O)N5CCN(C(=O)[C@]6(O)CNCC[C@H]6O)CC5)c(C)c4)nccn23)c(F)c1F (relative stereo) [Example 236, rel-(4-(4-((3-(2,3-difluoro-4-methoxyphenyl)imidazo[1,2-a]pyrazin-8-yl)amino)-2-methylbenzoyl)piperazin-1-yl)((3R,4S)-3,4-dihydroxypiperidin-3-yl)methanone]	82
COc1ccc(-c2cnc3c(Nc4ccc(C(=O)N5CCN(C(=O)[C@]67CNCC[C@H]6OC(C)(C)O7)CC5)c(C)c4)nccn23)c(F)c1F (stereo in doubt) [Example 577, rel-(4-(4-((3-(2,3-difluoro-4-methoxyphenyl)imidazo[1,2-a]pyrazin-8-yl)amino)-2-methylbenzoyl)piperazin-1-yl)((3aR,7aS)-2,2-dimethyltetrahydro-[1,3]dioxolo[4,5-c]pyridin-3a(4H)-yl)methanone]	330
COc1ccc(-c2cnc3c(Nc4ccc(C(=O)N5CCN(C(=O)[C@@]67CNCC[C@@H]6OC(C)(C)O7)CC5)c(C)c4)nccn23)c(F)c1F (stereo in doubt) [Example 578, rel-(4-(4-((3-(2,3-difluoro-4-methoxyphenyl)imidazo[1,2-a]pyrazin-8-yl)amino)-2-methylbenzoyl)piperazin-1-yl)((3aR,7aS)-2,2-dimethyltetrahydro-[1,3]dioxolo[4,5-c]pyridin-3a(4H)-yl)methanone]	649
COc1ccc(-c2cnc3c(Nc4ccc(C(=O)N5CCC(CN)CC5)c(C)c4)nccn23)cc1 [Example 19, (4-(aminomethyl)piperidin-1-yl)(4-((3-(4-methoxyphenyl)imidazo[1,2-a]pyrazin-8-yl)amino)-2-methylphenyl)methanone hydrochloride]	82
COc1ccc(-c2cnc3c(Nc4ccc(C(=O)N5CCN(C(=O)[C@@H]6CC(C)(C)CN6)CC5)c(C)c4)nccn23)c(F)c1F [Example 76, (S)-(4-(4-((3-(2,3-difluoro-4-methoxyphenyl)imidazo[1,2-a]pyrazin-8-yl)amino)-2-methylbenzoyl)piperazin-1-yl)(4,4-dimethylpyrrolidin-2-yl)methanone hydrochloride]	91
Cc1cc(Nc2nccn3c(-c4ccc(OCC#N)c(F)c4F)cnc23)ccc1C(=O)N1CCC(C(=O)N2CC3(CNC3)C2)CC1 [Example 87, 2-(4-(8-((4-(4-(2,6-diazaspiro[3.3]heptane-2-carbonyl)piperidine-1-carbonyl)-3-methylphenyl)amino)imidazo[1,2-a]pyrazin-3-yl)-2,3-difluorophenoxy)acetonitrile]	166

More lines, now with the values ahead:

IC90 [nM]	SMILES
104	COc1ccc(-c2cnc3c(Nc4ccc(C(=O)N5CCN(C(=O)[C@H]6C[C@H](O)CN6)CC5)c(C)c4)nccn23)c(F)c1F (racemic) [Example 228, [4-[[3-(2,3-difluoro-4-methoxy-phenyl)imidazo[1,2-a]pyrazin-8-yl]amino]-2-methyl-phenyl]-[4-[rac-(2R,4S)-4-hydroxy-pyrrolidine-2-carbonyl]piperazin-1-yl]methanone]
83	COc1ccc(-c2cnc3c(Nc4ccc(C(=O)N5CCN(C(=O)[C@@H]6CCC(C)(C)N6)CC5)c(C)c4)nccn23)c(F)c1F [Example 77, (S)-(4-(4-((3-(2,3-difluoro-4-methoxyphenyl)imidazol[1,2-a]pyrazin-8-yl)amino)-2-methylbenzoyl)piperazin-1-yl)(5,5-dimethylpyrrolidin-2-yl)methanone hydrochloride]
167	COc1ccc(-c2cnc3c(Nc4ccc(C(=O)N5CCN(C(=O)[C@@H]6NCC[C@@H]6O)CC5)c(C)c4)nccn23)c(F)c1F [Example 79, [4-[[3-(2,3-difluoro-4-methoxyphenyl)imidazo[1,2-a]pyrazin-8-yl]amino]-2-methylphenyl]-[4-[(2R,3S)-3-hydroxypyrrolidine-2-carbonyl]piperazin-1-yl]methanone;hydrochloride]
81	COc1ccc(-c2cnc3c(Nc4ccc(C(=O)N5CCN(C(=O)C6(C)CCCN6)CC5)c(C)c4)nccn23)c(F)c1F (stereo not drawn) [Example 80, (4-(4-((3-(2,3-difluoro-4-methoxyphenyl)imidazo[1,2-a]pyrazin-8-yl)amino)-2-methylbenzoyl)piperazin-1-yl)(2-methylpyrrolidin-2-yl)methanone hydrochloride]
106	COc1ccc(-c2cnc3c(Nc4ccc(C(=O)N5CCN(C(=O)[C@@H]6C[C@@H](F)CN6)CC5)c(C)c4)nccn23)c(F)c1F [Example 81, (4-(4-((3-(2,3-difluoro-4-methoxyphenyl)imidazo[1,2-a]pyrazin-8-yl)amino)-2-methylbenzoyl)piperazin-1-yl)((2S,4R)-4-fluoropyrrolidin-2-yl)methanone hydrochloride]
85	COc1ccc(-c2cnc3c(Nc4ccc(C(=O)N5CCN(C(=O)[C@@H]6C[C@H](F)CN6)CC5)c(C)c4)nccn23)c(F)c1F [Example 83, (4-(4-((3-(2,3-difluoro-4-methoxyphenyl)imidazo[1,2-a]pyrazin-8-yl)amino)-2-methylbenzoyl)piperazin-1-yl)((2S,4S)-4-fluoropyrrolidin-2-yl)methanone hydrochloride]
195	COc1ccc(-c2cnc3c(Nc4ccc(C(=O)N5CCC(C(=O)NCC(O)CNC(N)=O)CC5)c(C)c4)nccn23)c(F)c1F (stereo not drawn) [Example 88, 1-(4-((3-(2,3-difluoro-4-methoxyphenyl)imidazo[1,2-a]pyrazin-8-yl)amino)-2-methylbenzoyl)-N-(2-hydroxy-3-ureidopropyl)piperidine-4-carboxamide]

Same assay, conditions: Acinetobacter baumannii, ATCC17961, 16 h, read-out: ATCC17961 IC90

SMILES	IC90 [nM]
COc1cc(Nc2nccn3c(-c4ccc(OC)c(F)c4F)cnc23)ccc1C(=O)N1CCN(C(=O)[C@H]2C[C@H](O)CN2)CC1 (stereo in doubt) [Example 586, (4-(4-((3-(2,3-difluoro-4-methoxyphenyl)imidazo[1,2-a]pyrazin-8-yl)amino)-2-methoxybenzoyl)piperazin-1-yl)((2R,4S)-4-hydroxypyrrolidin-2-yl)methanone formate]	312
COc1ccc(-c2cnc3c(Nc4ccc(C(=O)N5CCN(C(=O)[C@H]6NCC[C@H]6O)CC5)c(C)c4)nccn23)c(F)c1F [Example 78, (4-(4-((3-(2,3-difluoro-4-methoxyphenyl)imidazo[1,2-a]pyrazin-8-yl)amino)-2-methylbenzoyl)piperazin-1-yl)((2S,3R)-3-hydroxypyrrolidin-2-yl)methanone hydrochloride]	87
COC[C@@H]1CN[C@H](C(=O)N2CCN(C(=O)c3ccc(Nc4nccn5c(-c6ccc(OC)c(F)c6F)cnc45)cc3C)CC2)C1 [Example 84, (4-(4-((3-(2,3-difluoro-4-methoxyphenyl)imidazo[1,2-a]pyrazin-8-yl)amino)-2-methylbenzoyl)piperazin-1-yl)((2S,4S)-4-(methoxymethyl)pyrrolidin-2-yl)methanone hydrochloride]	76

Test system: Acinetobacter baumannii ATCC17978
Test: as above
Type: cell-based
Details: 90% growth inhibitory concentration, Acinetobacter baumannii ATCC17978, Iso-Sensitest broth, OD 600 nm over 16 h; read-out: ATCC17978 IC90
Summary of the method: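 A. baumannii ATCC17978 grown in Iso-Sensitest broth across 10 compound concentrations at 35±2 °C.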

SMILES	IC90 [nM]
COc1ccc(-c2cnc3c(Nc4ccc(C(=O)N5CCC(C(=O)NCC(O)CN6CCCC6)CC5)c(C)c4)nccn23)cc1F (stereo not drawn) [Example 568, 1-(4-((3-(3-fluoro-4-methoxyphenyl)imidazo[1,2-a]pyrazin-8-yl)amino)-2-methylbenzoyl)-N-(2-hydroxy-3-(pyrrolidin-1-yl)propyl)piperidine-4-carboxamide]	229

— patent US20230011869A1 (Hoffmann-La Roche Inc., priority 2018, published 2023)
